Data taken from US20260317340A1, “COMPOUNDS, COMPOSITIONS, AND METHODS OF TREATING DISORDERS” (Chengdu Anticancer Bioscience, Ltd., priority 2023, published 2026).
Like-named read-outs stand apart in the source and are kept apart here.

How the values were obtained:
[1] = test system: RPE-Neo or RPE-MYC or RPE-MYC expressing an EGFP-Histone 2B fusion protein; experiment: Phenotypic screening assay: arrest in mitosis, change in DNA content (polyploidy), cell death; format: cell-based; settings: 20 nM to 20 μM, 24, 48 or 72 hours
Method: (§1) Human cancer cell lines were obtained from ATCC and cultured in DMEM (Gibco, Cleveland, TN, USA) supplemented with 5% fetal bovine serum (Gibco), penicillin (100 U/mL)-streptomycin (100 μg/mL) (Gibco, Cat. No. 15140-122), 2 mM L-glutamine (Gibco, 200 mM solution, Cat. No. 25030081), and 1 mM sodium pyruvate (Gibco, 100 mM solution, Cat. No. 11360070) at 37° C. in a humidified incubator that was maintained at 5% CO2.
Screening was conducted as described before (Li et al. 2019). Briefly, RPE-Neo or RPE-MYC or RPE-MYC expressing an EGFP-Histone 2B fusion protein were passaged as batches of 96-well plates, 18-24 hours before exposure to the chemical compounds of the present disclosure at concentrations from 20 nM to 20 μM. At 24, 48 or 72 hours after initiation of treatment, cells were analyzed for either an arrest in mitosis or a change in DNA content by GE IN-Cell Analyzer 2000. MTT assays of cellular proliferation were performed as previously described (Li et al. 2019).
(§2) As set forth in table 2 below, an values of greater than or equal to 1 nM and less than or equal to 1.0 μM is marked “A”; a value greater than 1.00 μM and less than or equal to 10.0 μM is marked “B”; a value greater than 10.0 μM and less than or equal to 30.0 μM is marked “C”; and a value greater than 30.0 μM and less than 1000 μM is marked “D.”

[2] = test system: RPE-Neo or RPE-MYC cells; experiment: MTT assay of cellular proliferation (proliferative arrest); format: cell-based; settings: read-out: Min. Effective conc. for Proliferative arrest (>50%)
Method: as §1
Screening was conducted as described before (Li et al. 2019). Briefly, RPE-Neo or RPE-MYC or RPE-MYC expressing an EGFP-Histone 2B fusion protein were passaged as batches of 96-well plates, 18-24 hours before exposure to the chemical compounds of the present disclosure at concentrations from 20 nM to 20 μM. At 24, 48 or 72 hours after initiation of treatment, cells were analyzed for either an arrest in mitosis or a change in DNA content by GE IN-Cell Analyzer 2000. MTT assays of cellular proliferation were performed as previously described (Li et al. 2019). […]
as §2

[3] = read-out: Min. Effective conc. for Along with Cell Death
[4] = ≥5%, read-out: Min. Effective conc. for Mitotic Arrest (≥5%)
[5] = ≥5%, read-out: Min. Effective conc. for Polyploidy (≥5%)

Measured: minimal effective concentration

Cc1cnc(C2=Cc3ccc(-c4cnn(C)c4)cc3N(Cc3ccc(C)c(F)c3)C(=O)C2)o1 [Compound 20, 1-(3-fluoro-4-methylbenzyl)-8-(1-methyl-1H-pyrazol-4-yl)-4-(5-methyloxazol-2-yl)-1,3-dihydro-2H-benzo[b]azepin-2-one]
0.001 to 1 µM: [1]; [3] | [1]; [4] | [1]; [5] | [2]

Cc1cnc(C2=Cc3ccc(-c4cnn(C5CC5)c4)cc3N(Cc3ccc(C)c(F)c3)C(=O)C2)o1 [Compound 21, 8-(1-Cyclopropyl-1H-pyrazol-4-yl)-1-(3-fluoro-4-methylbenzyl)-4-(5-methyloxazol-2-yl)-1,3-dihydro-2H-benzo[b]azepin-2-one]
0.001 to 1 µM: [1]; [3] | [1]; [4] | [1]; [5] | [2]

Cc1cnc(C2=Cc3ccc(-c4cn[nH]c4)cc3N(Cc3ccc(C)c(F)c3)C(=O)C2)o1 [Compound 22, 1-(3-fluoro-4-methylbenzyl)-4-(5-methyloxazol-2-yl)-8-(1H-pyrazol-4-yl)-1,3-dihydro-2H-benzo[b]azepin-2-one]
0.001 to 1 µM: [1]; [3] | [1]; [4] | [1]; [5] | [2]

Cc1cnc(C2=Cc3ccc(-c4cccnc4)cc3N(Cc3ccc(C)c(F)c3)C(=O)C2)o1 [Compound 23, 1-(3-fluoro-4-methylbenzyl)-4-(5-methyloxazol-2-yl)-8-(pyridin-3-yl)-1,3-dihydro-2H-benzo[b]azepin-2-one]
0.001 to 1 µM: [1]; [3] | [1]; [4] | [1]; [5] | [2]

COc1ccc(CN2C(=O)CC(c3ncc(C)o3)=Cc3ccccc32)cc1 [Compound 24, 1-(4-methoxybenzyl)-4-(5-methyloxazol-2-yl)-1,3-dihydro-2H-benzo[b]azepin-2-one]
0.001 to 1 µM: [1]; [3] | [1]; [4] | [1]; [5] | [2]

COc1ccc(CN2C(=O)CC(c3ncc(C)o3)=Cc3ccc(Br)cc32)cc1 [Compound 25, 8-bromo-1-(4-methoxybenzyl)-4-(5-methyloxazol-2-yl)-1,3-dihydro-2H-benzo[b]azepin-2-one]
0.001 to 1 µM: [1]; [3] | [1]; [4] | [1]; [5] | [2]

COc1ccc(CN2C(=O)CC(c3ncc(C)o3)=Cc3ccc(N)cc32)cc1 [Compound 26, 8-amino-1-(4-methoxybenzyl)-4-(5-methyloxazol-2-yl)-1,3-dihydro-2H-benzo[b]azepin-2-one]
0.001 to 1 µM: [1]; [3] | [1]; [4] | [1]; [5] | [2]

COc1ccc(CN2C(=O)CC(c3ncc(C)o3)=Cc3ccc(O)cc32)cc1 [Compound 27, 8-hydroxy-1-(4-methoxybenzyl)-4-(5-methyloxazol-2-yl)-1,3-dihydro-2H-benzo[b]azepin-2-one]
0.001 to 1 µM: [1]; [3] | [1]; [4] | [1]; [5] | [2]

COc1ccc(CN2C(=O)CC(c3ncc(C)o3)=Cc3ccc(-c4ccsc4)cc32)cc1 [Compound 28, 1-(4-methoxybenzyl)-4-(5-methyloxazol-2-yl)-8-(thiophen-3-yl)-1,3-dihydro-2H-benzo[b]azepin-2-one]
0.001 to 1 µM: [1]; [3] | [1]; [4] | [1]; [5] | [2]

COc1ccc(CN2C(=O)CC(c3ncc(C)o3)=Cc3ccc(-c4ccoc4)cc32)cc1 [Compound 29, 8-(furan-3-yl)-1-(4-methoxybenzyl)-4-(5-methyloxazol-2-yl)-1,3-dihydro-2H-benzo[b]azepin-2-one]
0.001 to 1 µM: [1]; [3] | [1]; [4] | [1]; [5] | [2]

COc1ccc(CN2C(=O)CC(c3ncc(C)o3)=Cc3ccc(-c4cnn(C)c4)cc32)cc1 [Compound 30, 1-(4-methoxybenzyl)-8-(1-methyl-1H-pyrazol-4-yl)-4-(5-methyloxazol-2-yl)-1,3-dihydro-2H-benzo[b]azepin-2-one]
0.001 to 1 µM: [1]; [3] | [1]; [4] | [1]; [5] | [2]

COc1ccc(CN2C(=O)CC(c3ncc(C)o3)=Cc3ccc(-c4ccn(C)n4)cc32)cc1 [Compound 31, 1-(4-methoxybenzyl)-8-(1-methyl-1H-pyrazol-3-yl)-4-(5-methyloxazol-2-yl)-1,3-dihydro-2H-benzo[b]azepin-2-one]
0.001 to 1 µM: [1]; [3] | [1]; [4] | [1]; [5] | [2]

COc1ccc(CN2C(=O)CC(c3ncc(C)o3)=Cc3ccc(-c4cncn4C)cc32)cc1 [Compound 32, 1-(4-methoxybenzyl)-8-(1-methyl-1H-imidazol-5-yl)-4-(5-methyloxazol-2-yl)-1,3-dihydro-2H-benzo[b]azepin-2-one]
0.001 to 1 µM: [1]; [3] | [1]; [4] | [1]; [5] | [2]

COc1ccc(CN2C(=O)CC(c3ncc(C)o3)=Cc3ccc(-c4cn[nH]c4)cc32)cc1 [Compound 33, 1-(4-methoxybenzyl)-4-(5-methyloxazol-2-yl)-8-(1H-pyrazol-4-yl)-1,3-dihydro-2H-benzo[b]azepin-2-one]
0.001 to 1 µM: [1]; [3] | [1]; [4] | [1]; [5] | [2]

COc1ccc(CN2C(=O)CC(c3ncc(C)o3)=Cc3ccc(-c4cnn(C5CC5)c4)cc32)cc1 [Compound 34, 8-(1-cyclopropyl-1H-pyrazol-4-yl)-1-(4-methoxybenzyl)-4-(5-methyloxazol-2-yl)-1,3-dihydro-2H-benzo[b]azepin-2-one]
0.001 to 1 µM: [1]; [3] | [1]; [4] | [1]; [5] | [2]

COc1ccc(CN2C(=O)CC(c3ncc(C)o3)=Cc3ccc(-c4cnn(C5CCNCC5)c4)cc32)cc1 [Compound 35, 1-(4-methoxybenzyl)-4-(5-methyloxazol-2-yl)-8-(1-(piperidin-4-yl)-1H-pyrazol-4-yl)-1,3-dihydro-2H-benzo[b]azepin-2-one]
0.001 to 1 µM: [1]; [3] | [1]; [4] | [1]; [5] | [2]

COc1ccc(CN2C(=O)CC(c3ncc(C)o3)=Cc3ccc(-c4cccnc4)cc32)cc1 [Compound 39, 1-(4-methoxybenzyl)-4-(5-methyloxazol-2-yl)-8-(pyridin-3-yl)-1,3-dihydro-2H-benzo[b]azepin-2-one]
0.001 to 1 µM: [1]; [3] | [1]; [4] | [1]; [5] | [2]

COc1ccc(CN2C(=O)CC(c3ncc(C)o3)=Cc3ccc(-c4ccncc4)cc32)cc1 [Compound 40, 1-(4-methoxybenzyl)-4-(5-methyloxazol-2-yl)-8-(pyridin-4-yl)-1,3-dihydro-2H-benzo[b]azepin-2-one]
0.001 to 1 µM: [1]; [3] | [1]; [4] | [1]; [5] | [2]

COc1ccc(CN2C(=O)CC(c3ncc(C)o3)=Cc3ccc(-c4ccc(F)nc4)cc32)cc1 [Compound 41, 8-(6-fluoropyridin-3-yl)-1-(4-methoxybenzyl)-4-(5-methyloxazol-2-yl)-1,3-dihydro-2H-benzo[b]azepin-2-one]
0.001 to 1 µM: [1]; [3] | [1]; [4] | [1]; [5] | [2]

COc1ccc(CN2C(=O)CC(c3ncc(C)o3)=Cc3ccc(-c4ccc(C5CC5)nc4)cc32)cc1 [Compound 43, 8-(6-cyclopropylpyridin-3-yl)-1-(4-methoxybenzyl)-4-(5-methyloxazol-2-yl)-1,3-dihydro-2H-benzo[b]azepin-2-one]
0.001 to 1 µM: [1]; [3] | [1]; [4] | [1]; [5] | [2]
